Results as given in ChEMBL document CHEMBL1201862, “PubChem BioAssay data set” (2004).
Activity calls are given as the source filed them.

Experiments:
[1] = target: Glucose-6-phosphate 1-dehydrogenase (Homo sapiens, UniProt P11413); assay: human G6PD enzyme inhibitors, dose response, selectivity assay for P. falciparum G6PD inhibitor project, biochemical, fluorescence (AID 504792); format: functional
[2] = Luminescence Cell-Based Dose Confirmation HTS to Identify Inhibitors of Platelet Dense Granule Release. [Related pubchem assays: 1663 (Primary HTS), 1678 (Summary of Project)]; format: functional
[3] = target: Luciferin 4-monooxygenase (Photinus pyralis, UniProt P08659); assay: firefly luciferase enzyme inhibitors, dose response, biochemical, luminescence (AID 1891)
Chain of Luciferin 4-monooxygenase (P08659 whole entry): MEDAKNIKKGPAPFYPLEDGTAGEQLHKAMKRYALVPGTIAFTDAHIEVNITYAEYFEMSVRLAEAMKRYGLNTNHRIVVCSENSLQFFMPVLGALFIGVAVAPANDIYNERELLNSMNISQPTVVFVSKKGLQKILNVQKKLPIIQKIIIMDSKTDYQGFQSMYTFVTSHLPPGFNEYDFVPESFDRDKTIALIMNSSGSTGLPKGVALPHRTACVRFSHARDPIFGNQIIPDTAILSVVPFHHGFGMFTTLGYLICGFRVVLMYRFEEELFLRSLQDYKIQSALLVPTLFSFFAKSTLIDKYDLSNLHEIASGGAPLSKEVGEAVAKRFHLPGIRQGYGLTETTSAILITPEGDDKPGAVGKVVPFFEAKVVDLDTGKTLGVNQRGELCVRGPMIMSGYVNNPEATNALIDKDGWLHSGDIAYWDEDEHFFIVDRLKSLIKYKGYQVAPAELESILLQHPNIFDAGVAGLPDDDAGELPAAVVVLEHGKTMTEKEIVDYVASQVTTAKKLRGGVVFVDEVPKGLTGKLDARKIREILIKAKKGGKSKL

[4] = target: T1, Mannose-6-phosphate isomerase (Homo sapiens, UniProt P34949); assay: human PMI inhibitors, high substrate, primary screen, biochemical, fluorescence intensity, high mannose 6-phosphate (AID 1220)
T1 sequence (P34949 whole entry): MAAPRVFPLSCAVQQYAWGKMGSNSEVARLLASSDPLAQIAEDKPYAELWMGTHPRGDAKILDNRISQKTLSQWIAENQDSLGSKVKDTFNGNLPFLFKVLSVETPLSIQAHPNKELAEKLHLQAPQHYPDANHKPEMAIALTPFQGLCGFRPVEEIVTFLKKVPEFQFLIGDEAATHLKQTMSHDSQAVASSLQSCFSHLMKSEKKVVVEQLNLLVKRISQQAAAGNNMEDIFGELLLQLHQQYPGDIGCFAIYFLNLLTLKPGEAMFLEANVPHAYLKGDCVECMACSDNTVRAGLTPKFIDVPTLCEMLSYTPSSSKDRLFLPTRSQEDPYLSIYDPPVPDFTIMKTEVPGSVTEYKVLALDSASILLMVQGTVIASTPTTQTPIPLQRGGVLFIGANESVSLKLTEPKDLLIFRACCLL

[5] = THP-1 cell cytotoxicity, dose response, cytotoxicity control for Vif-APOBEC3G degradation inhibitor project, THP-1 cells (AID 1117359); format: functional; conditions: Human immunodeficiency virus 1, THP-1
Cytochrome P450 3A4 = Cytochrome P450 3A4 (Homo sapiens, UniProt P08684);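 note: CYP3A4 tested as one member of a cytochrome P450 panel screen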
Chain of Cytochrome P450 3A4 (P08684 whole entry): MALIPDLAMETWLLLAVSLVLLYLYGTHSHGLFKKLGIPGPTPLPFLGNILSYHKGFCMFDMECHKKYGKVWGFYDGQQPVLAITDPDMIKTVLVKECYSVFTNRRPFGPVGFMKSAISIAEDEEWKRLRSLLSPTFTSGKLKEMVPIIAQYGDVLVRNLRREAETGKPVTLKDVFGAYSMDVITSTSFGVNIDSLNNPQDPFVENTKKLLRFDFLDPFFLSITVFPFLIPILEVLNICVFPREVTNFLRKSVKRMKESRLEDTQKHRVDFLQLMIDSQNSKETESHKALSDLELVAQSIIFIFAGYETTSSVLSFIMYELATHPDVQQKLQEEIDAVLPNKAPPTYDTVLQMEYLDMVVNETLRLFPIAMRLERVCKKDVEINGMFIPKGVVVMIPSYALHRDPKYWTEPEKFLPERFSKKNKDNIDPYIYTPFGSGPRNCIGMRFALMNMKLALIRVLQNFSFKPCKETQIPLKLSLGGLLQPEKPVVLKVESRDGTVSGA

Cytochrome P450 2C9 = Cytochrome P450 2C9 (Homo sapiens, UniProt P11712)
Chain of Cytochrome P450 2C9 (P11712 whole entry, the tested form may be a part): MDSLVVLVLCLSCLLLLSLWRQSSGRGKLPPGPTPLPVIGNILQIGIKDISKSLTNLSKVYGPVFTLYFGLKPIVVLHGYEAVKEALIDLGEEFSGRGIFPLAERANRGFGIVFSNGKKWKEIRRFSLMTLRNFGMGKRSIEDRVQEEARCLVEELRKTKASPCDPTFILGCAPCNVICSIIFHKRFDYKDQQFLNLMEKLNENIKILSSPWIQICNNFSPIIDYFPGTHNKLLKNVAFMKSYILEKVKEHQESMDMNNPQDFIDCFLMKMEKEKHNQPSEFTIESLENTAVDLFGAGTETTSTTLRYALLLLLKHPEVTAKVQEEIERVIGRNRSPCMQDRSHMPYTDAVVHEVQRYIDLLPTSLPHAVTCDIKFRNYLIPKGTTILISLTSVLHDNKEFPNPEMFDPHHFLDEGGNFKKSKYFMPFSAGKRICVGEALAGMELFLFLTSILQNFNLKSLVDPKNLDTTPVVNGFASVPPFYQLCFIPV

[6] = target: T2, Oxysterols receptor LXR-beta (Homo sapiens, UniProt P55055); format: functional, cell-based;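 note: Cell-based luminescence dose-response assay of agonist activity at LXR, run as a confirmatory counterscreen to a daf-12 agonist screen; HEK293 cells with Gal4-LXR fusion and GAL4-driven luciferase reporter; agonist potency from rising luciferase signal of a Gal4-LXR reporter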
T2 sequence (P55055 whole entry): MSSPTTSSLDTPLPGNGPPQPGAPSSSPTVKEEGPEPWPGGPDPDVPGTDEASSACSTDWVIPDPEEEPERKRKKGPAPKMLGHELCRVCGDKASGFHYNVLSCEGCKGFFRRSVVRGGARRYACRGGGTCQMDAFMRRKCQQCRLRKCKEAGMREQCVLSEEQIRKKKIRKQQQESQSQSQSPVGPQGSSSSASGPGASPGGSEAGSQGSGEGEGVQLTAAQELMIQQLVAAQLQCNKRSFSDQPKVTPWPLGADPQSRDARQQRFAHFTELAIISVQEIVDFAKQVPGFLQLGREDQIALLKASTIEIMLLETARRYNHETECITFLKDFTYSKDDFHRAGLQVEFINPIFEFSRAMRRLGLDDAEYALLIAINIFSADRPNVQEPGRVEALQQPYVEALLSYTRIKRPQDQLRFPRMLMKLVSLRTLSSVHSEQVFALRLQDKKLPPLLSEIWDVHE

[7] = target: Mitogen-activated protein kinase 10 (Homo sapiens, UniProt P53779); assay: Dose response biochemical screening assay for inhibitors of c-Jun N-Terminal Kinase 3 (JNK3). [Related pubchem assays: 746 ]
Chain of Mitogen-activated protein kinase 10 (P53779 whole entry): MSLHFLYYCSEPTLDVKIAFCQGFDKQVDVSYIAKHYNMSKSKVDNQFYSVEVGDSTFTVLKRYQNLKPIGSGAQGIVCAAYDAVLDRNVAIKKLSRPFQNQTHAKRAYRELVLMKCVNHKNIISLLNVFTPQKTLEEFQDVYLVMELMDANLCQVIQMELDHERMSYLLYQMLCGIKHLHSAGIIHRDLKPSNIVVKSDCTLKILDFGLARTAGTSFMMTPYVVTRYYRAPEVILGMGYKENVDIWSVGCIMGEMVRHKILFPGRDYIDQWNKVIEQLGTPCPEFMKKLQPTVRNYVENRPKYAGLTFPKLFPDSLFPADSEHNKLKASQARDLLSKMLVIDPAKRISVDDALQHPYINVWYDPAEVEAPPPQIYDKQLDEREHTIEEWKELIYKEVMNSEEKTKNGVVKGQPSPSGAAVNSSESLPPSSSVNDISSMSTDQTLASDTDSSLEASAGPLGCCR

[8] = Luminescence Cell-Based Dose Confirmation HTS to Identify Activators of 5'UTR Stem-Loop Driven Alpha-Synuclein mRNA Translation in H4 Neuroglioblastoma Cells. [Related pubchem assays: 1829 (Project Summary), 1814 (Primary HTS)]; format: functional
H4 = assay: Luminescence Cell-Based Dose Response HTS to Identify Activators of 5'UTR Stem-Loop Driven Prion Protein mRNA Translation in H4 Neuroglioblastoma Cells. [Related pubchem assays: 1829 (Project Summary), 1814 (Primary HTS)]; format: functional; conditions: Homo sapiens
[9] = Luminescence Cell-Based Dose Response HTS to Identify Activators of Luciferase Translation or Activity in H4 […] Cells. [Related pubchem assays: 1829 (Project Summary), 1814 (Primary HTS)]; format: functional
Protein skinhead-1 = target: T3, Protein skinhead-1 (Caenorhabditis elegans, UniProt P34707); format: functional
T3 sequence (P34707 whole entry): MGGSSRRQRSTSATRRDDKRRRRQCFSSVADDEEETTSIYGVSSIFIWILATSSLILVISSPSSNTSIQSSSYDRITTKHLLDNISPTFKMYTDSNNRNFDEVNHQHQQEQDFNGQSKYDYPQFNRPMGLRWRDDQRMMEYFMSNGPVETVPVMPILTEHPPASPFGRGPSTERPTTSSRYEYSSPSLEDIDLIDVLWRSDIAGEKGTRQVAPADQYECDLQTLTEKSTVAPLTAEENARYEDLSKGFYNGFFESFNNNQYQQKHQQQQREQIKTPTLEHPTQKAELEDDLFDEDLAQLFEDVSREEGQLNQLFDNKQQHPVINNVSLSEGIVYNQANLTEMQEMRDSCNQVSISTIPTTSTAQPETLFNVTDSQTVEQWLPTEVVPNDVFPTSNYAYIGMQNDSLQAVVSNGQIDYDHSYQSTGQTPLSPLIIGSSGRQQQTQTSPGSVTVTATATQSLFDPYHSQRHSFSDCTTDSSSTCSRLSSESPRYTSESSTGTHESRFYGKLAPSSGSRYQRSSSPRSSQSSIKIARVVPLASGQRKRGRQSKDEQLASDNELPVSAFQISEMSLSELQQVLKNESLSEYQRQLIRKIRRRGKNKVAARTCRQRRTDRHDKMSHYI

Chain of Glucose-6-phosphate 1-dehydrogenase (P11413 whole entry): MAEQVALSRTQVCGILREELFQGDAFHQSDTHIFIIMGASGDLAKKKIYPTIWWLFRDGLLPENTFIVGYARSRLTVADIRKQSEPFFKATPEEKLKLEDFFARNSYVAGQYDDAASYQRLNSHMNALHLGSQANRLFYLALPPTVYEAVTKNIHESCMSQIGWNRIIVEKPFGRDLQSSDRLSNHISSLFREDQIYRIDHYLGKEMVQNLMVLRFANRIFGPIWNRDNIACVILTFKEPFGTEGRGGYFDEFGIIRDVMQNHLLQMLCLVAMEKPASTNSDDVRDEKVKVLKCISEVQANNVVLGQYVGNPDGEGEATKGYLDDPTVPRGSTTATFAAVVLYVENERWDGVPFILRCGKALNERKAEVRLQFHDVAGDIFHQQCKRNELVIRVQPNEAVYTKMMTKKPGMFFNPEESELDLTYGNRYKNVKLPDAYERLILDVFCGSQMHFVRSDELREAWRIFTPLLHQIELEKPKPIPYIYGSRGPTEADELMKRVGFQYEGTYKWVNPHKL

CC(C)(C)NC(=O)COc1ccc(CNc2ccc3[nH]c(O)nc3c2)cc1
IC50 [1]: 64.6 µM (inactive) | EC50 [2]: 17.9 µM (active) | EC50 [3]: > 112 µM (not active) | IC50 [4]: > 50 µM (not active)

COc1ccc(Cc2nnc(NC(=O)CSc3ccccc3)s2)cc1
CC50 [5]: > 40 µM (active)

O=C(Oc1ccccc1)N1CCC2(CC1)CCN(c1ncccn1)CC2
AC50 (Cytochrome P450 3A4): inconclusive

COC(=O)c1ccccc1NC(=O)c1c(Br)cnn1C
AC50 (Cytochrome P450 2C9): inconclusive | AC50 (Cytochrome P450 3A4): inconclusive

Cc1ccnc(NC(=S)NC(=O)c2cccs2)c1
EC50 (cells): > 67.5 µM (inactive) | EC50 [6]: > 67.5 µM (inactive)

Cc1nn(-c2ccccc2)c2c1C(O)n1c(nc3ccccc31)S2 (stereo not given)
IC50 [7]: > 93.1 µM (not active) | EC50 [8]: > 120 µM (not active) | EC50 (H4): > 120 µM (not active) | EC50 [9]: > 120 µM (not active)

Cn1c(-c2ccco2)nc2cc3ccccc3cc21
IC50 (Protein skinhead-1): 33.9 µM (active) | EC50 (cells): > 67.5 µM (inactive) | EC50 [2]: 2.69 µM (active) | EC50 [6]: > 67.5 µM (inactive) | EC50 [3]: 0.695 µM (active)

CN1[C@@H]2CC[C@H]1CC(NC(=O)c1nn(C)c3ccccc13)C2 (stereo not given in full)
AC50 (Cytochrome P450 3A4): inconclusive
